# Where “and” joins values, the source holds several entries; their conditions need not be identical. Identical values can stand only once. Entries after “also recorded” stand apart in the source; their conditions may differ. Like-named read-outs stand apart in the source and are kept apart here.
# Key:
# [1] = tested on: beagle dogs; settings: glucose clamp
# Procedure: The glucose clamp technique involved the continuous infusion of a 50% glucose solution at a rate such that normal serum glucose values were maintained throughout the experiment (e.g., normal range is 80-100 mg/dl).
# Glucagon was also infused to maintain normal serum physiologic concentrations. […] Blood was withdrawn from an indwelling catheter over a 10-hour period.
# [2] = tested on: Sprague-Dawley rats; settings: for dose adequate to reduce blood glucose to the target (40-60 mg/dl): insulin mass; for Cmin (minimum blood glucose concentration) / Tmin (time to Cmin): 15 μg/animal
# Excerpt: The first phase established a dose of the compound required to achieve a target blood glucose reduction. This target blood glucose reduction was chosen to be the minimum reduction that is clearly recognizable as different from the resting blood glucose concentration.
# The second phase examined the pharmacokinetics/pharmacodynamics of the molecule when administered to rats at the selected dose over an observation time sufficient for the glucose to return to baseline.
# These experiments were conducted on male adult Sprague-Dawley rats of approximately 0.30-0.40 kg. Animals were obtained pre-cannulated with a jugular vein catheter (JVC) for blood sampling and, in the case of IV administration, and additional femoral vein catheter (FVC).
# Intravenous administration of compounds was made via a femoral catheter in a volume of 300 μl.
# Sample Collection was performed as follows. Blood samples of approximately 0.50 mL were collected from the JVC using a 1 mL syringe at each time point. A new syringe was used for each time point along with precautions to prevent contamination and carry-over.
# The glucose monitoring was conducted as follows. Approximately 20 μL of whole blood was touched to the end of the glucose test strip of 2 Glucometer Elite glucose monitors for a duplicate determination of blood glucose concentrations. If there was a discrepancy of greater than 5 mg/dl, a third reading was taken.
# The sample for compound quantitation in plasma, which served as basis for the PK analysis, was collected and processed as follows. The volume of blood remaining after the glucose measurement (˜480 μL) was anticoagulated with K2 EDTA and centrifuged to recover plasma. The plasma was collected and stored at −80° C. until analysis.
# [3] = tested on: rats; test: Glucose suppression / pulmonary absorption after intratracheal administration of PEG-insulins (Example 23); type: in vivo, rat; settings: for glucose suppression profile compared to insulin control: 20-80 μg/animal equivalent insulin mass (FIGS. 8b, 9b, 10-12)
# Excerpt: In the sections below, an effort is made to compare PEG-insulin preparations with respect to PEG molecular weight, PEGylation site, and chemistry. However, an accurate comparison was not always possible due to the presence of multiple PEG-insulin species in the preparations. Also, it could be that observed differences are due to differences in binding affinity to the receptor rather than absorption per se.
# PEGylated insulins were examined that were all derivatized in positions B1 or B29 using the same PEG active agent (SPA). The actual synthetic routes to generate specific B1 or B29 isomers were different. Data for B1-5000-PEG-Insulin, 750-lot 2-PEG-insulin and 2K-lot 2-PEG-Insulin and 750-lot 5-PEG-insulin; their respective glucose suppression curves are shown in FIGS. 10 and 8b.
# The results are illustrated in FIG. 11.
# The impact of acetylation with PEGylation on insulin absorption through the lungs was evaluated. Acetylated derivatives were produced at different levels of acetylation and were all PEGylated at the same position (B1) with the same MW PEG (750 Da): 750-lot A1- and 750-lot A2-PEG-insulin (details are given in Table 2). The results are illustrated in FIG. 12.
# [4] = tested on: Sprague-Dawley rats; test: Dose determination and PK/PD after intratracheal instillation (Example 25); type: in vivo, rat; settings: for dose adequate to reach the target nadir glucose suppression: intratracheal instillation, dose ranging leg; for Cmin (minimum blood glucose concentration) / Tmin (time to Cmin): intratracheal, 180, 240, 640 μg/animal for 2K, 3K, 5K (Table 6)
# Procedure: A spectrometric measurement of compound concentration was also made.
# Intratracheal Instillation (IT) was conducted as follows.
# Sample Collection was performed as follows.
# The glucose monitoring was conducted as follows.
# The experimental protocol was modified for the analysis of the acetylated compounds. This resulted from the intent to use LC/MS-MS for the quantitation of compound concentrations in plasma. This analytical technique requires a larger volume of plasma to permit concentration of the sample and achieve the requisite increase in sensitivity. […] The protocol was therefore modified to increase the number of animals by two-fold and split the samples between these two cohorts.
# To explore the data further, the PK profiles after IT doses were deconvoluted using IV PK parameters using the Wagner Nelson deconvolution procedure, to generate the cumulative absorption profile (FIG. 32).
# [5] = tested on: Sprague-Dawley rats; test: Glucose depression after intravenous injection of PEG-insulins (Example 23); type: in vivo, rat; settings: for glucose depression (in vivo activity) in comparison to regular insulin: 20 μg/animal equivalent insulin mass (FIG. 8a)
# Procedure: The API concentration in the stock solutions was determined post-dosing by UV/VIS spectroscopy. All stock solutions were prepared on the study initiation day.
# Whole blood (0.5 mL) was collected from the jugular vein catheter and placed into serum separator tubes at pre-dose (2 to 0.25 hours prior to dosing) and post-dose time points. After the sample was collected, an equivalent volume of PBS was administered, the catheter lumen was filled with 100 μL of heparinized PBS, and the cannula hub was plugged with a cotton applicator tip soaked in heparinized saline.
# A small amount of whole blood was placed on the glucose test strip for blood glucose determination. The remainder of the sample was separated into serum by centrifugation for 10 minutes at 13,000 rpm. The serum was drawn off into a new Eppendorf tubes. The serum samples were stored at −20° C. on dry ice until shipped, and then stored at −80° C. until analysis.
# The test and control insulin-containing articles were dissolved in saline (pH 7.4) and injected as an IV bolus into Sprague-Dawley rats. Prior to administration, the rats were lightly anesthetized for approximately 3-5 minutes in a Plexiglas induction chamber by inhaled 3.0-5.0% isoflurane mixed with air. The femoral vein catheter (FVC) was used for IV drug administration and the jugular vein catheter (JVC) was used for venous blood sampling to ensure no cross-contamination occurred.
# A 1 mL syringe was fitted into the cannula, and the heparinized phosphate buffered saline solution present in the catheter lumen was removed by drawing back on the syringe plunger until blood filled the hub of the syringe. The heparinized phosphate buffered saline solution and the syringe were discarded and replaced by a new 1 mL syringe containing the appropriate IV dosing volume. The IV dose was then slowly and completely administered to the animal. The cannula was immediately flushed with 300 μL of phosphate buffered saline after dose administration. Blood was withdrawn from an indwelling catheter over a three-hour period. All drug doses refer to equivalent insulin mass delivered to the animals.
# This study was designed to obtain a broad sense of the activity of the compounds rather than serve as an accurate activity measurement.
# [6] = tested on: Sprague-Dawley rats
# Procedure: The liquid formulation was prepared in Dulbecco's phosphate buffered saline (DPBS) for IT administration. […] The dose was administered at a fixed volume of 300 μL; as a result, dosing solutions were prepared within 2 hours of administration by dilution of the stock solution.
# The lowest dose that met the criteria of achieving nadir blood glucose concentrations between approximately 40 and 60 mg/dL in the first 4 hours after compound administration was chosen for the second leg of the study.
# The test system included 19 pre-cannulated (jugular vein catheter (JVC)) adult male fasted (˜15-20 hours) Sprague-Dawley rats (Hilltop Lab Animals, Inc., Scottdale, Pa.). Ten animals weighing between 0.285-0.308 kg were used for the dose-ranging leg and 9 animals weighing between 0.288-0.313 kg were used for the PK/PD leg. Prior to dosing, the rats were lightly anesthetized by inhaled Isoflurane (Abbott Laboratories, Chicago, Ill.). […] Two readings of whole blood glucose concentration (mg/dL) per time point were made using a Glucometer Elite glucose monitor (Bayer Corp., Elkhart, Ind.). […] Pharmacodynamic analysis was performed using Microsoft Office Excel 2003.
# [7] = rats, IT, 80 μg/animal, Group 1
# [8] = rats, IT, 160 μg/animal, Group 1
# [9] = rats, IT, 200 μg/animal, Group 1
# [10] = rats, IT, 270 μg/animal, Group 1
# [11] = rats, IT, 270 μg/animal, Group 2 (PK/PD leg)
# [12] = rats, IT, 381 μg/animal, Group 1
# [13] = rats, IT, 381 μg/animal, Group 1, euthanized at 4 hr
substance,measurement,setting,value
N^εB29-{3-[methoxy(ethoxy)2K]propionyl}insulin [B29 2K-2-PEG-insulin],"infused glucose required to maintain basal levels, versus insulin alone",[1]; powder inhalation,required less infused glucose to maintain basal levels
same,duration for which glucose infusion was necessary,[1]; powder inhalation (FIG. 13a),420 min
AKZO insulin: reference compound AKZO NOBEL Human Insulin [reference compound],time by which blood glucose was back to baseline,"[2]; rats, intravenous (AKZO insulin 1-6 μg/rat; PEG-B1 insulins 15 μg/rat)",≤ 90 min
same,Glucose Tmin,"[2]; rats, intravenous, all doses 1-6 μg/rat",15 min
same,dose adequate to reduce blood glucose to the target (40-60 mg/dl),"[2]; rats, intravenous",3 μg/rat
"N^αA1,N^εB29-{3-[methoxy(ethoxy)750]propionyl}insulin [750-lot 3-PEG-insulin]",glucose suppression profile compared to insulin control,[3],prolonged systemic glucose suppression compared to the insulin control
N^αB1-{3-[methoxy(ethoxy)2K]propionyl}insulin [PEG2000-B1 Insulin],dose adequate to reach the target nadir glucose suppression,[4],180 μg/rat
same,Cmin (minimum blood glucose concentration),[4],38 ± 9 mg/dL
same,Tmin (time to Cmin),[4],290 ± 171 min
same,time up to which blood glucose is still suppressed (not back to baseline),"[4]; intratracheal, selected dose",≥ 9 h
same,Cmin (minimum blood glucose concentration),"[2]; rats, intravenous",42 ± 13 mg/dL
same,Tmin (time to Cmin),"[2]; rats, intravenous",33 ± 15 min
same,Cmin (minimum blood glucose concentration),"[2]; rats, intravenous, listed as PEG2000-B1",42 mg/dL
same,dose adequate to reduce blood glucose to the target (40-60 mg/dl),"[2]; rats, intravenous",15 μg/rat
N^αB1-{3-[methoxy(ethoxy)5K]propionyl}insulin [PEG5000-B1 Insulin],glucose depression (in vivo activity) in comparison to regular insulin,[5],smaller glucose depression in comparison to regular insulin
same,time glucose remains below euglycemic levels,"[3]; 40 μg/animal, no data beyond 6 hours",at least 6 hours
same,glucose suppression profile compared to insulin control,[3],little systemic glucose suppression compared to the insulin control
same,dose adequate to reach the target nadir glucose suppression,[4],640 μg/rat
same,Cmin (minimum blood glucose concentration),[4],37 ± 3 mg/dL
same,Tmin (time to Cmin),[4],480 ± 0 min
same,time to reach Cmin (Tmin),"[4]; intratracheal, selected dose",8 h
same,time up to which blood glucose is still suppressed (not back to baseline),"[4]; intratracheal, selected dose",≥ 16 h
same,time by which plasma concentration falls below the limit of quantitation,"[2]; rat, in vivo, iv",≤ 6 h
same,Cmin (minimum blood glucose concentration),"[2]; rats, intravenous",42 ± 9 mg/dL
same,Tmin (time to Cmin),"[2]; rats, intravenous",24 ± 8 min
same,Cmin (minimum blood glucose concentration),"[2]; rats, intravenous, listed as PEG5000-B1",42 mg/dL
same,dose adequate to reduce blood glucose to the target (40-60 mg/dl),"[2]; rats, intravenous",15 μg/rat
N^αB1-{3-[methoxy(ethoxy)750]propionyl}insulin [750-lot 2-PEG-insulin],glucose depression (in vivo activity) in comparison to regular insulin,[5],smaller glucose depression in comparison to regular insulin
same,time at which glucose suppression reaches nadir,[3]; 80 μg insulin equivalent,6 h
same,time of return of glucose to baseline,[3]; 80 μg insulin equivalent,≥ 12 h
same,glucose suppression profile compared to insulin control,[3],prolonged glucose suppression profile; also recorded: prolonged systemic glucose suppression compared to the insulin control
"di-N^αA1,N^εB29-(acetyl)-B1-{4-[methoxy(ethoxy)2K]butyryl}insulin [PEG2K-Ald-DiAc Insulin]",hypoglycemia (<20 mg/dL blood glucose concentration),"[6]; rat, in vivo",caused hypoglycemia
same,"Cmin, individual animals",[6]; [7],78 mg/dL and 85 mg/dL
same,"Cmin, mean",[6]; [7],81 mg/dL
same,"Tmin, mean",[6]; [7],4.50 h
same,"Cmin, individual animals",[6]; [8],86 mg/dL and 82 mg/dL
same,"Cmin, mean",[6]; [8],84 mg/dL
same,"Tmin, individual animals",[6]; [8],6 h
same,"Tmin, mean",[6]; [8],6.00 h
same,"Cmin, individual animals",[6]; [9],109 mg/dL and 37 mg/dL
same,"Cmin, mean",[6]; [9],73 mg/dL
same,"Tmin, mean",[6]; [9],3.50 h
same,animals in which target glucose suppression was not achieved,"[6]; rats, IT, 270 μg, PK/PD leg",three out of nine
same,"Cmin, individual animals",[6]; [10],31 mg/dL and 35 mg/dL
same,"Cmin, mean",[6]; [10],33 mg/dL
same,"Tmin, individual animals",[6]; [10],3 h and 8 h
same,"Tmin, mean",[6]; [10],5.50 h
same,"Cmin, mean",[6]; [11],52 mg/dL and 52 ± 29 mg/dL
same,"Tmin, mean",[6]; [11],5.80 h and 5.8 ± 3.5 h
same,"Cmin, mean",[6]; [12],20 mg/dL
same,"Tmin, mean",[6]; [12],4.00 h
same,"Cmin, individual animals",[6]; [13],20 mg/dL and 19^a mg/dL
same,"Tmin, individual animals",[6]; [13],4 h
same,pharmacological effect on mean blood glucose versus saline (historic data),"[6]; rats, IT, 200-270 μg/animal",does have a pharmacological effect
same,dose selected for the PK/PD leg (nadir blood glucose about 40-60 mg/dL),"[6]; rats, IT, dose range finding leg",270 µg
"N^αA1,N^εB29-{3-[methoxy(ethoxy)750]propionyl}insulin [750-lot 4-PEG-insulin]",reduction of insulin activity,[5]; 80 μg insulin/animal (FIG. 9a),about 50%
"N^αA1,N^εB29-{3-[methoxy(ethoxy)2K]propionyl}insulin [2000-PEG-insulin]",glucose depression (in vivo activity) in comparison to regular insulin,[5],deviations were significant
"N^αA1,N^εB29-{3-[methoxy(ethoxy)550]propionyl}insulin [550-lot 1-PEG-insulin]",glucose suppression profile compared to insulin control,[3],much of the glucose suppression activity of insulin is restored
N^εB29-{3-[methoxy(ethoxy)750]proprionyl}insulin [B29 750-lot 5-PEG-insulin],glucose suppression profile compared to insulin control,[3]; listed as B29 750 analog,glucose depression profile similar to the control
N^αB1-{3-[methoxy(ethoxy)3K]propionyl}insulin [PEG3000-B1 Insulin],dose adequate to reach the target nadir glucose suppression,[4],240 μg/rat
same,Cmin (minimum blood glucose concentration),[4],45 ± 18 mg/dL
same,Tmin (time to Cmin),[4],170 ± 96 min
same,time up to which blood glucose is still suppressed (not back to baseline),"[4]; intratracheal, selected dose",≥ 9 h
same,Cmin (minimum blood glucose concentration),"[2]; rats, intravenous",36 ± 11 mg/dL
same,Tmin (time to Cmin),"[2]; rats, intravenous",24 ± 12 min
same,Cmin (minimum blood glucose concentration),"[2]; rats, intravenous, listed as PEG3000-B1",36 mg/dL
same,dose adequate to reduce blood glucose to the target (40-60 mg/dl),"[2]; rats, intravenous",15 μg/rat

# From patent publication US20110171312A1, “MODIFIED THERAPEUTIC PEPTIDES, METHODS OF THEIR PREPARATION AND USE” (Nektar Therapeutics, priority 2008, published 2011)
